This is an account of results in ChEMBL document CHEMBL4483862, “Open-source discovery of chemical leads for next-generation chemoprotective antimalarials” (2018).

In the assay the test system is Plasmodium berghei. The experiment in a line: Luciferase/luciferin-expressing antifolate-resistant parasites were used to infect a culture of HepG2 cells that were pre-incubated with compounds. Infected hepatocytes emit light due to the luciferase reaction. Assay results are presented as the percent inhibition of light emission compared to control. […]. It counts as functional. Particulars: sporozoite; for IC90: read-out: LUCIFERASE INFECTION ASSAY - IC90.

Where [1] appears, read: read-out: LUCIFERASE INFECTION ASSAY - IC50.

What is called IC50 is the concentration needed to halve the response being measured. What is called IC90 is the concentration at which the effect reaches the 90% level. Consider `Cc1cccc(Cn2c(CN3CCCCC3)nc3ccccc32)c1`, for which the IC90 came to 9.84 µM. Further, the IC50 (HEPG2TOX_HILL_SLOPE 11.8, HEPG2TOX_R_SQUARED 0.182, PBLUC_HILL_SLOPE 4.42, PBLUC_R_SQUARED 0.595, read-out: LUCIFERASE INFECTION ASSAY - IC50) was 5.99 µM.

In the case of `CC(=O)N(/N=C/c1ccc(Cl)cc1)C1=NN(C(C)=O)C(c2ccc(Cl)cc2)S1` (stereo unspecified), the IC90 was over 7.58 µM. For the same molecule, the IC50 under setting [1] was over 7.58 µM.

`Clc1ccc(-c2cnc3sc(NCCc4ccncc4)nn23)cc1`: the IC90 was over 9.27 µM. Also, the IC50 under setting [1] is over 9.27 µM.

For the molecule `O=C(COC(=O)c1cc(-c2ccccc2)c(N2CCOCC2)s1)NCc1cccs1`, the IC90 amounted to 7.35 µM. In addition, the IC50 (HEPG2TOX_HILL_SLOPE 2.63, HEPG2TOX_R_SQUARED 0.904, PBLUC_HILL_SLOPE 1.69, PBLUC_R_SQUARED 0.47, read-out: LUCIFERASE INFECTION ASSAY - IC50) was found to be 2 µM.

As for `CN(C)c1ccccc1-c1cn2c(-c3ccc4ncccc4c3)cnc2cn1`, the IC90 was over 9.03 µM. The concentration for half-maximal inhibition (IC50) (HEPG2TOX_HILL_SLOPE 7.2, HEPG2TOX_R_SQUARED 0.832, read-out: LUCIFERASE INFECTION ASSAY - IC50) is over 9.03 µM.

As for `CNc1nc2cnc(Nc3cccc(NC(C)=O)c3)cc2n1-c1cccc(F)c1`, the IC90 was over 10 µM. Besides, the 50% inhibitory concentration (IC50) (HEPG2TOX_HILL_SLOPE 2.07, HEPG2TOX_R_SQUARED 0.855, PBLUC_HILL_SLOPE 1.72, PBLUC_R_SQUARED 0.4, read-out: LUCIFERASE INFECTION ASSAY - IC50) worked out at 3.92 µM.

For `Oc1cccc(-c2cnc3cnc(-c4cccnc4)cn23)c1`, the IC90 is over 11.4 µM. Besides, the IC50 (PBLUC_HILL_SLOPE 14.9, PBLUC_R_SQUARED 0.072, read-out: LUCIFERASE INFECTION ASSAY - IC50) came to 10.8 µM.

For the molecule `CC(C)c1ccc(-c2noc(CCC(=O)Nc3ccn(C)n3)n2)cc1`, the concentration for an effect of 90% (IC90) was over 10 µM. Moreover, the IC50 under setting [1] was over 10 µM.

Regarding `O=C1N/C(=N\C2CCCC2)S/C1=C\c1ccc2c(c1)OCCO2`, the IC90 is 7.77 µM. The IC50 (HEPG2TOX_HILL_SLOPE 6.25, HEPG2TOX_R_SQUARED 0.845, PBLUC_HILL_SLOPE 2.64, PBLUC_R_SQUARED 0.759, read-out: LUCIFERASE INFECTION ASSAY - IC50) amounted to 3.38 µM.

With `CCN(c1ccccc1)S(=O)(=O)c1ccc(C(=O)N2CCN(c3cccc(C)c3C)CC2)cc1`, the IC90 was found to be 5.07 µM. The IC50 under setting [1] stood at 4.15 µM.

`N#CC(C(=O)CSc1nnc(-c2ccc(F)cc2)c2ccccc12)=C1Nc2ccccc2N1`: the IC90 is over 10 µM. Further, where the note is “FFLUC_HILL_SLOPE 12, FFLUC_R_SQUARED 0.136, read-out: LUCIFERASE INFECTION ASSAY - IC50”, the IC50 is over 10 µM.

For the molecule `Cn1c(SCc2nc3ccc(Cl)cc3n2CCO)nc2scc(-c3ccc(F)cc3)c2c1=O`, the concentration for an effect of 90% (IC90) was 3.59 µM. For the same molecule, the IC50 (PBLUC_HILL_SLOPE 30.6, PBLUC_R_SQUARED 0.504, read-out: LUCIFERASE INFECTION ASSAY - IC50) was 3.34 µM.

As to `CCCCNC(=O)c1c(NC(=O)c2c(F)ccc(F)c2F)nc2ccccn12`, the IC90 is over 8.45 µM. Further, the IC50 under setting [1] was over 8.45 µM.

On to `Cc1nc2ccccn2c1-c1nc(CCC2CCCCC2)c(C(=O)c2c(C)[nH]c3ccccc23)s1`, for which the IC90 is over 10 µM. Besides, the 50% inhibitory concentration (IC50) (PBLUC_HILL_SLOPE 8.8, PBLUC_R_SQUARED 0.142, read-out: LUCIFERASE INFECTION ASSAY - IC50) was 8.77 µM.

Regarding `O=C(c1c(-c2ccccc2)c2c3n(c(CN(C(=O)C4CC4)c4ccccc4)nn13)CCCC2)C1CC1`, the IC90 was over 10 µM. For the same molecule, the 50% inhibitory concentration (IC50) (HEPG2TOX_HILL_SLOPE 2.64, HEPG2TOX_R_SQUARED 0.879, read-out: LUCIFERASE INFECTION ASSAY - IC50) is over 10 µM.

Consider `CNc1snc(C)c1C(=O)N(C)Cc1ccc(C(C)C)cc1`, for which the IC90 was 0.0634 µM. Also, the IC50 (HEPG2TOX_HILL_SLOPE 3.83, HEPG2TOX_R_SQUARED 0.742, PBLUC_HILL_SLOPE 1.58, PBLUC_R_SQUARED 0.865, read-out: LUCIFERASE INFECTION ASSAY - IC50) turned out to be 0.0158 µM.

As for `COc1cc(-c2cc(-c3ccc(F)cc3)cnc2N)ccc1O`, the IC90 came out at 4.78 µM. In addition, the IC50 (PBLUC_HILL_SLOPE 9.98, PBLUC_R_SQUARED 0.631, read-out: LUCIFERASE INFECTION ASSAY - IC50) was determined as 3.84 µM.

Regarding `Cc1cc(O)c(C(=O)/C=C/c2cccc(C(F)(F)F)c2)c(=O)o1`, the IC90 is over 10 µM. The IC50 (FFLUC_HILL_SLOPE 56.9, FFLUC_R_SQUARED 0.7, read-out: LUCIFERASE INFECTION ASSAY - IC50) is over 10 µM.

As for `CCc1nc(CN2CC=C(c3c[nH]c4ccccc34)CC2)cs1`, the IC90 was 7.32 µM. The IC50 (HEPG2TOX_HILL_SLOPE 12.8, HEPG2TOX_R_SQUARED 0.446, PBLUC_HILL_SLOPE 9.90, 7.64, PBLUC_R_SQUARED 0.0237, 0.266, read-out: LUCIFERASE INFECTION ASSAY - IC50) stood at 5.75 µM.

On to `CC(C)CNC(=O)NC(=O)COC(=O)c1c2c(nc3ccccc13)CCCCC2`, for which the IC90 turned out to be 7.96 µM. Besides, the half-inhibitory concentration (IC50) under setting [1] is 3.9 µM.

Turning to `Cc1[nH]c(=O)c(C#N)cc1C(=O)CSc1ccc(C(C)(C)C)cc1`, the IC90 is over 9.69 µM. The half-maximal inhibitory concentration (IC50) under setting [1] is over 9.69 µM.

On to `COc1cc(CNC(=O)Nc2nc3ccccc3s2)cc(OC)c1OC`, for which the concentration for an effect of 90% (IC90) is over 10 µM. For the same molecule, the IC50 (HEPG2TOX_HILL_SLOPE 1.53, HEPG2TOX_R_SQUARED 0.847, PBLUC_HILL_SLOPE 0.688, PBLUC_R_SQUARED 0.648, read-out: LUCIFERASE INFECTION ASSAY - IC50) stood at 0.692 µM.

Regarding `O=C(CN1CCN(c2cccc(Cl)c2)CC1)Nc1nccs1`, the IC90 was over 9.8 µM. Moreover, the IC50 under setting [1] was over 9.8 µM.

Take `N#C/C(=N\Nc1ccc(F)cc1)S(=O)(=O)c1ccc(Cl)cc1`: the IC90 was found to be 4.33 µM. For the same molecule, the IC50 (FFLUC_HILL_SLOPE 1.6, FFLUC_R_SQUARED 0.662, HEPG2TOX_HILL_SLOPE 1.9, HEPG2TOX_R_SQUARED 0.994, PBLUC_HILL_SLOPE 9.61, PBLUC_R_SQUARED 0.336, read-out: LUCIFERASE INFECTION ASSAY - IC50) turned out to be 3.44 µM.

In the case of `COc1ccc(O)c(C(=O)c2cc(Cl)c3nc4ccccc4c(=O)n3c2)c1`, the concentration for an effect of 90% (IC90) amounted to 0.494 µM. For the same molecule, the IC50 (PBLUC_HILL_SLOPE 1.52, PBLUC_R_SQUARED 0.671, read-out: LUCIFERASE INFECTION ASSAY - IC50) was 0.117 µM.

Consider `N#C/C(=C\c1cccc([N+](=O)[O-])c1)c1nn(-c2ccccc2)c(-n2cccc2)c1C#N`, for which the 90% effect concentration (IC90) is over 8.12 µM. Also, the IC50 (PBLUC_HILL_SLOPE 2.16, PBLUC_R_SQUARED 0.645, read-out: LUCIFERASE INFECTION ASSAY - IC50) is 5.63 µM.

`CCCNC(=O)c1c(NC(=O)c2cccc(Cl)c2)nc2ccccn12`: the IC90 was determined as 1.11 µM. Moreover, where the note is “FFLUC_HILL_SLOPE 126, FFLUC_R_SQUARED 0.738, HEPG2TOX_HILL_SLOPE 0.804, HEPG2TOX_R_SQUARED 0.952, PBLUC_HILL_SLOPE 15.4, PBLUC_R_SQUARED 0.753, read-out: LUCIFERASE INFECTION ASSAY - IC50”, the half-inhibitory concentration (IC50) was 0.96 µM.

As to `CN(CC(=O)Nc1ccc(Cl)c(C(F)(F)F)c1)c1nc(CN2CCCCC2)nc2sc3c(c12)CCCC3`, the IC90 amounted to 9.99 µM. Also, the 50% inhibitory concentration (IC50) (HEPG2TOX_HILL_SLOPE 2.23, HEPG2TOX_R_SQUARED 0.93, PBLUC_HILL_SLOPE 4.09, PBLUC_R_SQUARED 0.44, read-out: LUCIFERASE INFECTION ASSAY - IC50) worked out at 5.84 µM.

Take `CCOc1cc(/C=C/C(=O)c2ccc(N(C)C)cc2)cc(Br)c1OCC(=O)N(C)C`: the IC90 came to 4.93 µM. Further, the IC50 under setting [1] turned out to be 2.32 µM.

Take `COc1ccc(-c2cc(C(=O)NNC(=S)NC3CC4CCC3C4)[nH]n2)cc1` (stereo unspecified): the 90% effect concentration (IC90) is over 10 µM. Further, the IC50 under setting [1] is over 10 µM.

Regarding `N#CC(C#N)=NNc1cccc(Cl)c1` [CARBONYL CYANIDE M-CHLOROPHENYLHYDRAZONE], the IC90 is 13.9 µM. The IC50 under setting [1] came to 3.84 µM.

Regarding `CCCNC(=O)c1c(NC(=O)c2cccc(F)c2)nc2ccccn12`, the IC90 amounted to 7.76 µM. Further, the 50% inhibitory concentration (IC50) under setting [1] was 4.52 µM.

As to `Nc1ncc(-c2ccccc2Oc2ccccc2)cc1-c1ccc(O)cc1`, the IC90 was over 9.31 µM. Under “FFLUC_HILL_SLOPE 1.5, FFLUC_R_SQUARED 0.249, PBLUC_HILL_SLOPE 4.63, PBLUC_R_SQUARED 0.261, read-out: LUCIFERASE INFECTION ASSAY - IC50”, the IC50 is 6.66 µM.

Consider `O=C(Cc1ccccc1)NCC(=O)N1CCOC(c2ccccc2)C1` (stereo unspecified), for which the IC90 was over 10 µM. Besides, the 50% inhibitory concentration (IC50) under setting [1] is over 10 µM.

Regarding `CC(=O)c1ccc(OCC(O)CN2CCC(c3c[nH]c4ccccc34)CC2)cc1` (stereo unspecified), the IC90 is over 10 µM. Also, the IC50 under setting [1] amounted to 5.84 µM.

In the case of `CC(=O)c1cccc(-c2cnc3cnc(-c4cccs4)cn23)c1`, the IC90 turned out to be 8.52 µM. In addition, under “HEPG2TOX_HILL_SLOPE 0.197, HEPG2TOX_R_SQUARED 0.442, PBLUC_HILL_SLOPE 3.75, PBLUC_R_SQUARED 0.777, read-out: LUCIFERASE INFECTION ASSAY - IC50”, the IC50 stood at 4.74 µM.

`Cc1ccc2c(c1)NC(C)c1ccccc1O2` (stereo unspecified): the IC90 is over 10 µM. Besides, where the note is “FFLUC_HILL_SLOPE 2.08, FFLUC_R_SQUARED 0.224, HEPG2TOX_HILL_SLOPE 6.95, HEPG2TOX_R_SQUARED 0.413, PBLUC_HILL_SLOPE 13.7, PBLUC_R_SQUARED 0.727, read-out: LUCIFERASE INFECTION ASSAY - IC50”, the IC50 was 8.91 µM.

For the molecule `C=CCn1c(SC(C(=O)c2c[nH]c3ccccc23)c2ccccc2)nc2ccccc2c1=O` (stereo unspecified), the IC90 was over 10 µM. In addition, the IC50 under setting [1] came out at 8.28 µM.
